Test [1] deals with chronic pressure overload (TAC) induced heart failure in WT and Sirt3Ko mice. In words: Survival, organ weight and histology (HW/TL, lung edema, fibrosis) after TAC. It counts as in vivo, mouse. As to the method:
Mice randomly received either NR (500 mg/kg body weight) (Canto et al., 2012) or vehicle saline daily for eight-weeks. Representative M-mode images for the echocardiography can be found in FIGS. 1C and 1D. Four weeks of chronic pressure overload caused similar declines in left ventricular fractional shortening (FS %) in mice randomized to NR or vehicle groups for either WT or Sirt3Ko (FIGS. 1E and 1F). […] Similar to NR treated WT, cardiac hypertrophy, left ventricular cavity dilation, and lung edema were less severe in Sirt3Ko TAO mice that received NR treatment (FIGS. 1B-1J). All echocardiography parameters can be found in Table 1 below.
Transverse aortic constriction. Male mice (3-4 months old) underwent transverse aortic constriction (TAC) or sham surgery. Briefly, mice were anesthetized with an IP injection of 130 mg/kg ketamine and 8.8 mg/kg xylazine in saline. Mice were intubated with 20 G cannula and ventilated 140 breaths per minute by small animal TOPO ventilator (Kent Scientific). The aortic arch was exposed via a left thoracotomy and by carefully separating the thymus. A constriction of the transverse aorta was generated by tying a 6-0 Ethilon ligature against a 27-gauge blunt needle around the aorta between the brachiocephalic and left common carotid arteries. Promptly the needle was removed and the chest and skin were closed by 5-0 polypropylene suture. The animal was removed from ventilation and kept on a heating blanket during recovery from anesthesia. SR buprenorphine (0.05 mg/kg) was administered subcutaneously for analgesia. Sham operated mice underwent all the same procedures as TAC mice excluding the constriction of the aorta. All mice were monitored every 12 h during the first 72 h post-surgery, followed by daily visits over the next 4 weeks.
Organ weight and histological assessment. Hearts from mice were harvested, rinsed briefly in 1×PBS, blotted dry, and weighed. Lungs from the same mice were harvested, weighed, then dried at 56 C. After 72 hours the lungs were weighed again. Heart weight (HW) and Lung weight (LW) was normalized to tibia length (TL) to assess changes in hypertrophic growth and lung edema, respectively. For histology, hearts were perfusion fixed with 10% neutral buffered formalin. Longitudinal sections of hearts were stained with Masson's Trichrome for assessment of fibrosis by the University of Washington Histology and Imaging Core.

Test [2] deals with NAD+ salvage pathway / NAD(H) redox in mouse heart. In words: Cardiac NAD+/NADH determination and targeted LC-MS metabolomics in TAC hearts. It counts as in vivo. As to the method: NAD^+/NADH determination. NAD^+ and NADH were determined in 8 mg heart tissue using BioAssay Systems EnzyChrom NAD^+/NAD Assay Kit (E2ND-100) per manufactures instructions.
Targeted Metabolomics. Analysis of metabolites was done by The Northwest Metabolomics Research Center at the University of Washington. Briefly, aqueous metabolites for targeted LC-MS profiling of heart tissue samples were extracted from frozen heart tissue (10 mg) by precipitating in 80:20% methanol:water. After centrifugation, the supernatant was transferred to LC/MS auto sampler vials (Thermo Fisher). The protein pellet was redissolved in 0.1M NaOH and protein concentration measured for normalization. Samples were first homogenized in 200 μL purified deionized water at 4° C., and then 800 μL of cold methanol. Afterwards samples were vortexed, stored for 30 minutes at −20° C., sonicated in an ice bath for 10 minutes, centrifuged for 15 min at 14,000 rpm and 4° C., and then 600 μL of supernatant was collected from each sample. […] Samples were transferred into LC vials and placed into a temperature controlled autosampler for LC-MS analysis.
LC-MS Assay. Targeted LC-MS metabolite analysis was performed on a duplex-LC-MS system composed of two Shimadzu UPLC pumps, CTC Analytics PAL HTC-xt temperature-controlled auto-sampler (set at 4° C.) and AB Sciex 6500+ Triple Quadrupole MS equipped with ESI ionization source (2). UPLC pumps were connected to the autosampler in parallel and were able to perform two chromatography separations independently from each other. Each sample was injected twice on two identical analytical columns (Waters XBridge BEH Amide XP) performing separations in hydrophilic interaction liquid chromatography (HILIC) mode. While one column was performing separation and MS data acquisition in ESI+ ionization mode, the other column was getting equilibrated for sample injection, chromatography separation and MS data acquisition in ESI-mode. Each chromatography separation was 18 minutes (total analysis time per sample was 36 minutes). MS data acquisition was performed in multiple-reaction-monitoring (MRM) mode. LC-MS system was controlled using AB Sciex Analyst 1.6.3 software. Measured MS peaks were integrated using AB Sciex MultiQuant 3.0.3 software. The LC-MS assay was targeting 361 metabolites (plus 2 spiked reference internal standards). Up to 192 metabolites (plus 2 spiked standards) were measured across the study set, and over 95% of measured metabolites were measured across all the samples. In the addition to the study samples, two sets of quality control (QC) samples were used to monitor the assay performance as well as data reproducibility. One QC [QC(I)] was a pooled human serum sample used to monitor system performance and the other QC [QC(S)] was pooled study samples and this QC was used to monitor data reproducibility. Each QC sample was injected per every 10 study samples. The data were well reproducible with a median CV of 7.0%.

The mark [3] stands for this setting: Sirt3Ko TAC mice, similar to NR treated WT.

The results in this text go back to patent publication US20240216412A1, “OXIDIZED NICOTINAMIDE ADENINE DINUCLEOTIDE (NAD+) PRECURSOR TREATMENT FOR HEART FAILURE ALLEVIATION INDEPENDENT OF MITOCHONDRIAL PROTEIN DEACETYLATION” (University of Washington, priority 2022, published 2024).

As to `NC(=O)c1ccc[n+]([C@@H]2O[C@H](CO)[C@@H](O)[C@H]2O)c1` [NR, Nicotinamide riboside chloride], in test [1] (Sirt3Ko TAC mice), the “Fibrosis (Masson's trichrome)” value is “decreased fibrosis”. In test [1] (setting [3]), the Cardiac hypertrophy entry is recorded as “less severe” and the Lung edema result is “less severe”. Besides, the “Mortality (Kaplan-Meier survival curve analysis)” value in test [1] (WT and Sirt3Ko TAC mice, NR vs vehicle for eight weeks) is “no significant difference in mortality”. In addition, the “Markers of lipid oxidation (oxidized glutathione)” value in test [2] (TAC mice) is “decreased”. Also, in test [2] (WT and Sirt3Ko hearts), the “Cardiac levels of NAD(H)” value is “increased”, the “Cardiac levels of methyl-nicotinamide (MeNAM)” value is “increased” and the “Cardiac levels of nicotinamide (NAM)” value is recorded as “increased”. Moreover, in test [2] (both genotypes, after TAC), the “NAD+/NADH ratio” value was “normalized”. In addition, in test [2] (myocardial tissue of TAC hearts, vs vehicle), the “Metabolites indicative of myocardial fibrosis (hydroxyproline, putrescine, spermidine)” value is recorded as “reduced”.
